The subject of data set [1] is S. Typhinurium (TA 102, TA98 and TA 100). Nature of the data set: AMES test, revertant colony formation. It counts as cell-based. The note with it: for Revertant colony formation TA98 + S9: TA98 with S9, top dose 5 mg/ml; for Revertant colony formation TA98: TA98 without S9, top dose 5 mg/ml; for Revertant colony formation TA100 + S9: TA100 with S9 rat liver microsomal system, top dose 5 mg/ml; for Revertant colony formation TA100: TA100 without S9, top dose 5 mg/ml; for Revertant colony formation TA102 + S9: TA102 with S9, top dose 5 mg/ml; for Revertant colony formation TA102: TA102 without S9, top dose 5 mg/ml. As to the method:
The five compounds were subjected to a standard AMES test to assess likely genotoxicity. Three His-auxotroph strains of S. Typhinurium (TA 102, TA98 and TA 100) were treated with each of the compounds at 5 concentrations (up to 5 mg/ml) in the presence and absence of S9 rat liver microsomal metabolising system. The number of revertant colonies was then determined by plating on trace-His minimal media.
A general note: Microsomes from liver hold many membrane-bound enzymes, among them those of drug oxidation.

Data set [2] has as its system C5a induced neutrophil migration. Nature of the data set: ChemoTx transwell migration assay, C5a induced migration of neutrophils (non-chemokine chemoattractant). The note with it: highest concentration tested 1 μM, read-out: ED50 C5a neutrophils. The format is cell-based. As to the method: In principle, this assay consists of two chambers separated by a porous membrane. The chemoattractant is placed in the lower compartment and the cells are placed in the upper compartment. After incubation for a period at 37° C. the cells move towards the chemoattractant, and the number of cells in the lower compartment is proportional to the chemoattractant activity (relative to a series of controls).
Next, the chemoattractant solution to be placed in the lower compartment is prepared. For example, MCP-1 is diluted in GBSS+BSA to give a final concentration of 25 ng/ml. This is divided into two pots, as for the cell suspension. To one pot, the test compound is added to the same final concentration as was added to the cell suspension, while to the other pot an equal volume of GBSS+BSA plus vehicle as appropriate (e,g. not more than 1% DMSO) is added. Alternatively, other chemokines may be used (SDF-1α at 7.5 ng/ml; RANTES at 50 ng/ml; IL-8 at 10 ng/ml using neutrophils as the target cell population). In each case it is important to determine (in a separate experiment) the concentration of each chemokine which causes maximal stimulation of migration of the chosen target leukocyte population. […]
The number of cells migrated into the lower chamber under each condition can then be determined by a number of methods, including direct counting, labelling with fluorescent or radioactive markers or through the use of a vital dye. […] 3 μl of stock MTT solution are added to each well, and then the plate is incubated at 37° C. for 1-2 hours during which time dehydrogenase enzymes within the cells convert the soluble MTT to an insoluble blue formazan product that can be quantified spectrophotometrically. […]
At the end of this incubation, the liquid is carefully removed from the lower chambers, taking care not to disturb the precipitated formazan product. After allowing to air dry briefly, 20 μl of DMSO is added to each lower chamber to solubilise the blue dye, and absorbance at 595 nm is determined using a 96-well plate reader. […]

For data set [3], the system named is target receptor (site of specific interaction of BN83250) (Homo sapiens). Nature of the data set: Competition for specific binding of [3H]-BN83250 to human myelomonocytic cell line. The note with it: competition binding curve, non-linear modelling. As to the method:
The general pharmacology of the five compounds was assessed, both against the specific target receptor, and against a wide variety of other receptors, many related in structure to the target receptor. Specific binding to the target receptor was assessed by competition for the binding of [^3H]-BN83250 (BN83250 is (S)-3-(2′,2′-dimethyldodecanoylamino)-caprolactam; Fox et al. J Med Chem. […]; 48(3):867-74; an agent known to bind to the same target receptor as the lactam BSCIs disclosed here). Binding to non-target receptors was assessed by competition for the binding of various specific radioligands for other receptors which are well known in the art.
For specific binding the human myelomonocytic cell line was resuspended in binding buffer (20 mM HEPES, 150 mM NaCl, pH 7.4; 10^6 cells per reaction) at 4° C. in the presence of 10 nM [^3]-BN83250 (from 1 μM stock in 100% ethanol; 30 Ci/mmol) and various competitors (1% DMSO maximum vehicle concentration). Reactions were incubated for 2 hours on ice, then filtered through GF/C filters pre-soaked in 0.5% polyethyeneimine. Unbound material was washed away with 5×5 ml ice cold washing buffer (20 mM HEPES, 150 mM NaCl, pH 7.4) under a slow vacuum.
Competition for the specific [^3H]-BN83250 with compounds (I′), (II) and (V) was then determined at various concentrations from 1 μM to 10 μM. Compounds (III) and (IV) were not examined in these experiments.
Non-linear modelling was then applied to the competition binding curves for the various compounds, in order to compare their properties as agents binding to the target receptor (defined as the site of specific interaction of BN83250).

This is an account of results in US7897620B2, “Methods of using anti-inflammatory compounds” (Cambridge Enterprise Limited, priority 2007, dated 2011).

Marks after values point to notes of the source that are not given here. A value given as a limit tells only on which side of the number the result lay.

target receptor (site of specific interaction of BN83250) (Homo sapiens), sequence (P30874 whole entry): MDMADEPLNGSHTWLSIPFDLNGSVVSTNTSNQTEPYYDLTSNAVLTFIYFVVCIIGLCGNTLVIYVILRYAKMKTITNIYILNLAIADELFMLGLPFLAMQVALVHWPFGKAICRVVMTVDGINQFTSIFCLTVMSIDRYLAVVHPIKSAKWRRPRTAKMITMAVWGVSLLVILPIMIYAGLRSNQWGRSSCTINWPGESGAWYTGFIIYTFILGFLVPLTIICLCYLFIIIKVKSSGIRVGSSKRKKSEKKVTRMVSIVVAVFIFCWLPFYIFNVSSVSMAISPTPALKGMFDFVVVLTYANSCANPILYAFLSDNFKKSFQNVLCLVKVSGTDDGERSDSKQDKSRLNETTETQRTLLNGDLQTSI

In general, Hill slope refers to the slope factor of the fitted curve. Turning to `O=C1NCCCC[C@@H]1NC(=O)C12CC3CC(CC(C3)C1)C2` [(II), 3-(adamantane-1-carbonylamino)-caprolactam], in data set [1], the “Revertant colony formation TA98 + S9” value was 0.60*, the “Revertant colony formation TA98” value is on record as 0.58*, the “Revertant colony formation TA100 + S9” value is reported as 0.73 and the “Revertant colony formation TA100” value is given as 0.59*. Further, in data set [1], the “Revertant colony formation TA102 + S9” value is on record as 0.93 and the “Revertant colony formation TA102” value is listed as 0.50*. Further, the EC50 in data set [2] is more than 1 µM. The Hill slope in data set [3] is −0.5.

Take `CC(C)(C)S(=O)(=O)N[C@H]1CCCCNC1=O` [(IV), 3-(1′,1′-dimethylethylsulfonylamino)-caprolactam]: in data set [1], the “Revertant colony formation TA98 + S9” value was found to be 0.90, the “Revertant colony formation TA98” value is recorded as 0.82, the “Revertant colony formation TA100 + S9” value turned out to be 0.90 and the “Revertant colony formation TA100” value was determined as 0.89. In data set [1], the “Revertant colony formation TA102 + S9” value is 0.88 and the “Revertant colony formation TA102” value turned out to be 0.85.

On to `O=C1NCCCC[C@@H]1NC(=O)C12CC3CC(CC(O)(C3)C1)C2` [(V), 3-(3′-hydroxyadamantyl-1-carbonylamino)-caprolactam], for which, in data set [1], the “Revertant colony formation TA98 + S9” value worked out at 0.91, the “Revertant colony formation TA98” value worked out at 0.96, the “Revertant colony formation TA100 + S9” value came out at 0.88 and the “Revertant colony formation TA100” value was determined as 0.78. Besides, in data set [1], the “Revertant colony formation TA102 + S9” value was 1.09 and the “Revertant colony formation TA102” value was 0.93. The EC50 in data set [2] is more than 1 µM. The molecule further returned a Hill slope in data set [3] of −0.5.

Consider `CC(C)(C)C(=O)N[C@H]1CCCNC1=O` [Compound (I′), 3-(2′,2′-dimethylpropanoylamino)-tetrahydropyridin-2-one], for which, in data set [1], the “Revertant colony formation TA98 + S9” value amounted to 1.23, the “Revertant colony formation TA98” value is given as 2.00**, the “Revertant colony formation TA100 + S9” value worked out at 0.95 and the “Revertant colony formation TA100” value stood at 0.97. In addition, in data set [1], the “Revertant colony formation TA102 + S9” value is 0.93 and the “Revertant colony formation TA102” value is 0.82. In addition, in data set [2], the EC50 is more than 1 µM. In addition, in data set [3], the Hill slope was −1.0.
